Data from ChEMBL document CHEMBL1201862, “PubChem BioAssay data set” (2004).
Blank lines part the entries; values can stand above or below the compound they belong to. Active and inactive are the calls of the source.

Columns and labels:
[1] = biological target: T1, Caspase-3 (Homo sapiens, UniProt P42574); format: functional;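 also: Dose-response selectivity test against caspase-3 for candidate inhibitors of sentrin-specific proteases (SENPs)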
T1 sequence (P42574 whole entry): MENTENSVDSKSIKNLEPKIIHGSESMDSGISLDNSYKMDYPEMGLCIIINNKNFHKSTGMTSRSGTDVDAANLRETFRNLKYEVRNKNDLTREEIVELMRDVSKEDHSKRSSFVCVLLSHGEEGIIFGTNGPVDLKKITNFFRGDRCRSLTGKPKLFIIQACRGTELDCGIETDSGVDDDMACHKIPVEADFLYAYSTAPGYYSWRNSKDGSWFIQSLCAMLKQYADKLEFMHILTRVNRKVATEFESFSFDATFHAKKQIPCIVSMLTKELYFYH

[2] = biological target: T2, Sentrin-specific protease 7 (Homo sapiens, UniProt Q9BQF6); format: functional;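 also: Luminescence-based dose-response confirmation of ultra-high-throughput screening hits, measuring inhibition of SENP7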
T2 sequence (Q9BQF6 whole entry): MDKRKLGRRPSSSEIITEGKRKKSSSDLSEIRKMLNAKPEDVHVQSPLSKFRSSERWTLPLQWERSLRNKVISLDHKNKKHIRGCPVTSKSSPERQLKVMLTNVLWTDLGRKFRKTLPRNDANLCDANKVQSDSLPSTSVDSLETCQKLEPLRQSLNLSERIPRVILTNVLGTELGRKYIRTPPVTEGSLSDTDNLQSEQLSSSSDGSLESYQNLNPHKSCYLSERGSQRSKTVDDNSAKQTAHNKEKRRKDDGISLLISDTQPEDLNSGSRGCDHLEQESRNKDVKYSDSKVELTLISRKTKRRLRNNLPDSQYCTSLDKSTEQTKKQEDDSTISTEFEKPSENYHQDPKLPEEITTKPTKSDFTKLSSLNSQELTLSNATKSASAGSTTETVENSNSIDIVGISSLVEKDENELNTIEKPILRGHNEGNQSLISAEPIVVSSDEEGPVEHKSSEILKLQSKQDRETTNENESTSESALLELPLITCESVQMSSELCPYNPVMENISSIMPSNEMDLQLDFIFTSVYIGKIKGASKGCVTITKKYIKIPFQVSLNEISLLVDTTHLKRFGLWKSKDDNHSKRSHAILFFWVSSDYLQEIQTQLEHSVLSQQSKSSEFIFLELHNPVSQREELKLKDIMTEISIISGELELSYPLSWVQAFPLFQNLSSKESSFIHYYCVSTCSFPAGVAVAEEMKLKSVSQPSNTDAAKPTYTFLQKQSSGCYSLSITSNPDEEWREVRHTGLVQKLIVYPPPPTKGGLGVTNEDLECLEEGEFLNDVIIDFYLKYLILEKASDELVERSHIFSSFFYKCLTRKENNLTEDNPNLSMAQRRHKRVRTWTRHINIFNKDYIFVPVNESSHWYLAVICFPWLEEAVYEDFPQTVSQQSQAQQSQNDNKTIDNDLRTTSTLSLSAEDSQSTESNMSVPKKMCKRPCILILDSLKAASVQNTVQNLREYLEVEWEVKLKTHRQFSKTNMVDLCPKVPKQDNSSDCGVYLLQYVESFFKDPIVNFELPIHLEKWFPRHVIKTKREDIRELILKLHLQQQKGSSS

[3] = biological target: T3, Sentrin-specific protease 6 (Homo sapiens, UniProt Q9GZR1); format: functional;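 also: Luminescence-based dose-response confirmatory assay of SENP6 inhibition, following up an ultra-high-throughput screen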
T3 sequence (Q9GZR1 whole entry): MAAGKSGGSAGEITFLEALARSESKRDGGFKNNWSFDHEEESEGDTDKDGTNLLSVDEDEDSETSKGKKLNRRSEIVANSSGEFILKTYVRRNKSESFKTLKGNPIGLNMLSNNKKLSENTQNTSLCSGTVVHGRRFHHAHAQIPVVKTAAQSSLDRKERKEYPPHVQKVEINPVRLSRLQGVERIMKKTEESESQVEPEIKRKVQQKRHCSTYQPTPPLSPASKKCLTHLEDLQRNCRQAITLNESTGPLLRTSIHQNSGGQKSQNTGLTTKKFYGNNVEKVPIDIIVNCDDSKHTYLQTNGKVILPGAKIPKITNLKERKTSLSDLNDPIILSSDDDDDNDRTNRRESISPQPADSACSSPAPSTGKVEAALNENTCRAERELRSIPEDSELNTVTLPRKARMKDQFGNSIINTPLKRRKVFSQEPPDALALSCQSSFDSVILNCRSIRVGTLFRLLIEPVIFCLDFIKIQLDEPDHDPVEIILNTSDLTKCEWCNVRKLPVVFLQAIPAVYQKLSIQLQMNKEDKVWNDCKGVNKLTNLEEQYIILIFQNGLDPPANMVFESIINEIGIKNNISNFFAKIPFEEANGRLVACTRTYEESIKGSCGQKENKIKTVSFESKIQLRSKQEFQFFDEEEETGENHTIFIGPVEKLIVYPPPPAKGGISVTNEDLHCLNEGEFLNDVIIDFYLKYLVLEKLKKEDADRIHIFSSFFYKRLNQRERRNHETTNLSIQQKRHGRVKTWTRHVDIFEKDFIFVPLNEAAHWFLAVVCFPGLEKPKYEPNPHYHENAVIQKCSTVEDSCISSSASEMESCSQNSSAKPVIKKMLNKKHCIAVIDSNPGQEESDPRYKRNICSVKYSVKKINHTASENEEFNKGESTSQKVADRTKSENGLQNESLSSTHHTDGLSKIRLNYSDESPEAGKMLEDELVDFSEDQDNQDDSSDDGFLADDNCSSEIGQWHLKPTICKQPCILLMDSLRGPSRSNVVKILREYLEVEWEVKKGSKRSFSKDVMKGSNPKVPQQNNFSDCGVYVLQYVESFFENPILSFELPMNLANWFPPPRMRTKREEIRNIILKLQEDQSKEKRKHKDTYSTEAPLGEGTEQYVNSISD

[4] = biological target: T4, Sentrin-specific protease 8 (Homo sapiens, UniProt Q96LD8); format: functional;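 also: luminescence read-out of SENP8 inhibition, dose-response confirmation following an ultra-high-throughput screen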
T4 sequence (Q96LD8 whole entry): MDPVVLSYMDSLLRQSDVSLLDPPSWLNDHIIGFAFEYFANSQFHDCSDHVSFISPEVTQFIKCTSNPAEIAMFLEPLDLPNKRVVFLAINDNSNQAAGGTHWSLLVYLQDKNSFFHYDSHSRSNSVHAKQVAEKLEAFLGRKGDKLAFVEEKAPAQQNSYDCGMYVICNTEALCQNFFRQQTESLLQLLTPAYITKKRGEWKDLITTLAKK

[5] = biological target: Cytochrome P450 2C19 (Homo sapiens, UniProt P33261); experiment: Cytochrome panel assay with activity outcomes. Panel member name: p450-cyp2c19 Compounds with AC50 equal or less than 10 uM are considered active; format: functional; settings: read-out: AC50
Sequence of Cytochrome P450 2C19 (P33261 whole entry): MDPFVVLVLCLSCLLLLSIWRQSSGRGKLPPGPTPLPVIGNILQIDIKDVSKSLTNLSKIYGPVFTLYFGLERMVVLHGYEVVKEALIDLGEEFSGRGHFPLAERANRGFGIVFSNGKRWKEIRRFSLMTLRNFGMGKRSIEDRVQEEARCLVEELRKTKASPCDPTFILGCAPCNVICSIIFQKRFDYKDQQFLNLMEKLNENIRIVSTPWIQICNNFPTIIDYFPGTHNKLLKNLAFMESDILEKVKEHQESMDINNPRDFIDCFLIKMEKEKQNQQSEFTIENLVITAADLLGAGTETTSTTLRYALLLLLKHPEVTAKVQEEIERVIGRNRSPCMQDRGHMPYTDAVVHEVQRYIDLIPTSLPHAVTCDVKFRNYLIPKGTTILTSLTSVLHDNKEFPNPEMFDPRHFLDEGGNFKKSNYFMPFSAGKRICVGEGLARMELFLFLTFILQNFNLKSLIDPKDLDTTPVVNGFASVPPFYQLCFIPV

[6] = biological target: Cytochrome P450 2D6 (Homo sapiens, UniProt P10635);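 also: CYP2D6 member of a cytochrome P450 panel assay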
Sequence of Cytochrome P450 2D6 (P10635 whole entry): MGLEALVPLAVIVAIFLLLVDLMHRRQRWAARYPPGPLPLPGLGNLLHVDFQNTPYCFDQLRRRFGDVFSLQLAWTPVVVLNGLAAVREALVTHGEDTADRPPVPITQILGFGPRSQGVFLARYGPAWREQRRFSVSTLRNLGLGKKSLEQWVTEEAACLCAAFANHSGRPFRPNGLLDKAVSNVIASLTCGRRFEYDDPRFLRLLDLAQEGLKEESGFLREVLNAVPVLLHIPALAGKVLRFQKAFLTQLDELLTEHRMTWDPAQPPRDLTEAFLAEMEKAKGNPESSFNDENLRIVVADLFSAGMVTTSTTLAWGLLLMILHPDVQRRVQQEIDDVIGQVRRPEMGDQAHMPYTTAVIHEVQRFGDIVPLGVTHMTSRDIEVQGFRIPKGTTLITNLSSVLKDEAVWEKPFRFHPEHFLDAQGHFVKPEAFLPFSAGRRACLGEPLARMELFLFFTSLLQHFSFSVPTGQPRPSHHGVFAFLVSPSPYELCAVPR

[7] = biological target: T5, Cytochrome P450 1A2 (Homo sapiens, UniProt P05177);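 also: PubChem cytochrome P450 panel assay, CYP1A2 panel member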
T5 sequence (P05177 whole entry): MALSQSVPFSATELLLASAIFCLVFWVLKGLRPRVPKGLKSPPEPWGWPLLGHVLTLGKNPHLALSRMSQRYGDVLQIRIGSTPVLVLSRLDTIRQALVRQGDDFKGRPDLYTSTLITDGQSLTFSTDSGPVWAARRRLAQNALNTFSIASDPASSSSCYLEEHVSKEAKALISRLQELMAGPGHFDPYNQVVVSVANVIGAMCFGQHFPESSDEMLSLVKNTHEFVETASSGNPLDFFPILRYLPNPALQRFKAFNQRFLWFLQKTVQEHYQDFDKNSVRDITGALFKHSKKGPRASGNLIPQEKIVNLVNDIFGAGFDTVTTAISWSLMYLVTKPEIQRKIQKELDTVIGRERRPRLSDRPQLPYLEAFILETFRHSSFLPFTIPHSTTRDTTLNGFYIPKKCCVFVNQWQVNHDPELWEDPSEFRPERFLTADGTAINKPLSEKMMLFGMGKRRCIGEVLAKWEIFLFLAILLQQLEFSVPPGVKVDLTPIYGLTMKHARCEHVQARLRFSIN

[8] = biological target: T6, Estrogen receptor beta (Homo sapiens, UniProt Q92731);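 also: recombinant ER-beta bound to coactivator SRC1 peptide in presence of estradiol agonist; inhibitors block coactivator peptide binding and lower the FRET signal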
T6 sequence (Q92731 whole entry): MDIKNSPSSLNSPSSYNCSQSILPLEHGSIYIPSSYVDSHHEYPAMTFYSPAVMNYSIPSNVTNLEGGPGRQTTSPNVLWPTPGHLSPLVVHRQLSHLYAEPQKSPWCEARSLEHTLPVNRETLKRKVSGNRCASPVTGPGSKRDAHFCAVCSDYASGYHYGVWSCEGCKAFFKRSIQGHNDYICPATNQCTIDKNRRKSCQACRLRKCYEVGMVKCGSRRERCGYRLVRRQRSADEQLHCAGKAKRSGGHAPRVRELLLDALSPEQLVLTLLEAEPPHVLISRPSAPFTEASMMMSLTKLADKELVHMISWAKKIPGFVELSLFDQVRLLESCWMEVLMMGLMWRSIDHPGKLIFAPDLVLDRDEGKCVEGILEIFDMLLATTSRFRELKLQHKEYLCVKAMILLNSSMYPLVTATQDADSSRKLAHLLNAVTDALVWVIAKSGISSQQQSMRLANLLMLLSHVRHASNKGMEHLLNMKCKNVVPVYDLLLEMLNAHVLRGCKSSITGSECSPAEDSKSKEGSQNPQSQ

[9] = biological target: T6, Estrogen receptor beta; experiment: ERβ–SRC-3 coactivator interaction inhibitors, confirmation, orthogonal assay, biochemical, ELISA, streptavidin-HRP readout (AID 1060)
[10] = biological target: T7, Carboxy-terminal domain RNA polymerase II polypeptide A small phosphatase 1 (Homo sapiens, UniProt Q9GZU7); experiment: inhibitors of CTDSP1, concentration-response testing, biochemical assay, absorbance-based, actives from ultra-high-throughput screening (AID 540297); format: functional
T7 sequence (Q9GZU7 whole entry): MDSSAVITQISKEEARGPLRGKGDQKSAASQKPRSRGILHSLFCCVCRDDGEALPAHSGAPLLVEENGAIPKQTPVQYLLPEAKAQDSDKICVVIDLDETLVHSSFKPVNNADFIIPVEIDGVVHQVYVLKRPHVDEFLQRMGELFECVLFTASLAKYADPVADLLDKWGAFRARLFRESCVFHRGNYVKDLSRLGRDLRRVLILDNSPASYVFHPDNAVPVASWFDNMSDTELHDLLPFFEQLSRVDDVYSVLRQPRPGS

[11] = biological target: T8, Corticotropin-releasing factor receptor 2/Corticotropin-releasing factor-binding protein (Homo sapiens, UniProt P24387+Q13324); experiment: Dose Response confirmation of uHTS hits for small molecule antagonists of the CRF-binding protein and CRF-R2 receptor complex.; format: functional; settings: read-out: IC50_Mean
T8 sequence (Q13324 whole entry): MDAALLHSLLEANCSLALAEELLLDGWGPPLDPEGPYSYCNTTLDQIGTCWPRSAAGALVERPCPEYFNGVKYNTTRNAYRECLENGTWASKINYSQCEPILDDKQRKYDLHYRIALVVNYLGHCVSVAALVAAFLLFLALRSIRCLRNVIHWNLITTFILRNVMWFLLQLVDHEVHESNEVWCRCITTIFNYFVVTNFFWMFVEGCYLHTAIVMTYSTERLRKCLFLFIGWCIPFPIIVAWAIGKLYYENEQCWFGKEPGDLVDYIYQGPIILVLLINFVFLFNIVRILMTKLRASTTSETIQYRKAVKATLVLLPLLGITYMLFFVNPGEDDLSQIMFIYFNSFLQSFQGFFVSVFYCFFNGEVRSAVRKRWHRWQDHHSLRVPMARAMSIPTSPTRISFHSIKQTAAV
T8 sequence (P24387 whole entry): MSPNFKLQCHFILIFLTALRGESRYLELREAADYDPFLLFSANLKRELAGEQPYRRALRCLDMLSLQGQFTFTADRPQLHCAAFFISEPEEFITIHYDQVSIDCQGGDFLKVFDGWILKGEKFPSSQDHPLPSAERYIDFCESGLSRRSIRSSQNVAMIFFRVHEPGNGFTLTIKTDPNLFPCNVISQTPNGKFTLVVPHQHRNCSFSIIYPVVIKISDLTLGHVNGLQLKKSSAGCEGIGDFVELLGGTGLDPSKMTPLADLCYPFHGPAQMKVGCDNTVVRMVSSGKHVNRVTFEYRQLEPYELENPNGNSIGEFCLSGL

[12] = biological target: T8, Corticotropin-releasing factor receptor 2/Corticotropin-releasing factor-binding protein; experiment: activators of CRF receptor 2 with binding protein – uHTS hits, confirmation (AID 602473); format: functional; settings: read-out: EC50_Mean
[13] = biological target: Glyceraldehyde-3-phosphate dehydrogenase (Homo sapiens, UniProt P04406)
Sequence of Glyceraldehyde-3-phosphate dehydrogenase (P04406 whole entry): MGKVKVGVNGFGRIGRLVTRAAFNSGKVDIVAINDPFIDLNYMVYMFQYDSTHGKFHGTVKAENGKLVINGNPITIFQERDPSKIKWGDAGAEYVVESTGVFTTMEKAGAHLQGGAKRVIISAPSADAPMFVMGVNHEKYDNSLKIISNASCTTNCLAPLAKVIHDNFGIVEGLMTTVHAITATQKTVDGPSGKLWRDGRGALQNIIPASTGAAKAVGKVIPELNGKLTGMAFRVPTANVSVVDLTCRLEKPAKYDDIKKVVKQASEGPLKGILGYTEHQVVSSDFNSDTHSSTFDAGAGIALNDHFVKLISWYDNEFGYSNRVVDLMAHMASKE

[14] = THP-1 cell cytotoxicity, dose response, cytotoxicity control for Vif-APOBEC3G degradation inhibitor project, THP-1 cells (AID 1117359); format: functional; settings: Human immunodeficiency virus 1, THP-1
[15] = Shn3 3'UTR reporter inhibitors, dose response, cell-based, Clone20 osteoblasts, firefly luciferase, cherry-picked (AID 624132); format: functional;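 also: firefly luciferase luminescence from reporter carrying the Shn3 3'UTR in osteoblasts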
[16] = HepG2 cell cytotoxicity, dose response, cytotoxicity control for Shn3 inhibitor project, CellTiter-Glo, cherry-picked (AID 624134); format: functional, cell-based
[17] = control 3'UTR Renilla luciferase suppression, dose response, counter-screen for Shn3 inhibitor project, cell-based, Clone20-Shn3RL, cherry-picked (AID 624133); format: functional
[18] = test system: HEK293; experiment: inhibitors of LMP1-driven NF-kB reporter, dose response, cell-based, HEK293, luciferase, cherry-pick (AID 588343); format: functional; settings: Homo sapiens

SMILES: CCOc1ccccc1-n1nnnc1SCC(=O)NC(=O)NCc1ccco1
- IC50 [8]: 7.76 µM (active)
- IC50 [9]: 9.38 µM (not active)

SMILES: Cc1ccnc(NC(=O)c2ccc(Cl)c(S(=O)(=O)N3CCCC3)c2)c1
- CC50 [14]: > 40 µM (active)

SMILES: CC(=O)Nc1nonc1-c1nc2ccccc2n1N(C(C)=O)C(C)=O
- IC50 [8]: 2.75 µM (active)
- IC50 [9]: > 109 µM (not active)

SMILES: O=C1CSc2ccc(C(=O)Nc3cccc(S(=O)(=O)Nc4ccc(Br)cc4)c3)cc2N1
- AC50 [15]: 3.08 µM (active)
- AC50 [16]: 45.6 µM (active)
- AC50 [17]: 8.81 µM (active)

SMILES: Cc1nc2ccc(NS(=O)(=O)c3ccc4c(c3)OCCO4)cc2s1
- AC50 [15]: 0.635 µM (active)
- AC50 [16]: 4.15 µM (active)
- AC50 [17]: > 70 µM (inactive)

SMILES: COc1ccc(S(=O)(=O)N2CCN(C(=O)c3cc(-c4ccccc4OC)[nH]n3)CC2)cc1
- CC50 [14]: > 40 µM (active)

SMILES: CC1C=CC=CC=CC=CC=CC=CC=CC(OC2OC(C)C(O)C(N)C2O)CC2OC(O)(CC(O)CC(O)C(O)CCC(O)CC(O)CC(=O)OC(C)C(C)C1O)CC(O)C2C(=O)O (stereo not given)
- IC50 [10]: 1.17 µM (active)
- CC50 [14]: 3.14 µM (active)

SMILES: Cc1cc(C(=O)COC(=O)c2cccc(NS(C)(=O)=O)c2)c(C)n1CC1CCCO1 (stereo not given)
- AC50 [18]: 3.15 µM (active)

Second part, led by results:

- IC50 [1]: 71.1 µM (active)
- IC50 [2]: 2.97 µM (active)
- IC50 [3]: 17.2 µM (active)
- AC50 [5]: 35.5 µM (inconclusive)
- AC50 [6]: 28.2 µM (inconclusive)
- AC50 [7]: 31.6 µM (inconclusive)
SMILES: C/C(=N\OC(=O)c1ccccc1F)c1nccs1
- IC50 [4]: 62.9 µM (active)

- IC50 [1]: 3.24 µM (active)
- IC50 [2]: 2.16 µM (active)
- IC50 [3]: 2.74 µM (active)
SMILES: Cc1ccccc1/C=C\c1nc(O)c2ccccc2n1
- IC50 [4]: 2.64 µM (active)

- IC50 [8]: > 50 µM (not active)
- IC50 [9]: 14.9 µM (active)
- IC50 [10]: 7.35 µM (active)
- IC50 [11]: > 47.1 µM (inactive)
- EC50 [12]: > 53 µM (inactive)
SMILES: COCCn1c(C)cc(C(=O)COC(=O)c2cc3c(s2)CCC3)c1C

- IC50 [13]: > 50 µM (inconclusive)
SMILES: O=C1C(Cl)=C(N2CCN(Cc3ccc4c(c3)OCO4)CC2)C(=O)N1c1ccnc(Cl)c1

- IC50 [8]: 9.84 µM (active)
- IC50 [9]: 0.0637 µM (not active)
SMILES: CCOc1ccc2nc(NC(=O)CCC(=O)c3cccs3)sc2c1

- IC50 [13]: > 50 µM (inconclusive)
SMILES: COc1cccc(N2C(=O)C(Cl)=C(N3CCN(Cc4ccccc4)CC3)C2=O)c1
